The assay deals with Acinetobacter baumannii ATCC17978. Kind of assay: Antimicrobial susceptibility testing: 90% growth inhibitory concentration (IC90) determination. The assay is classed as cell-based. The method, then: Antimicrobial Susceptibility Testing:
90% Growth Inhibitory Concentration (IC90) Determination
The in vitro antimicrobial activity of the compounds was determined according to the following procedure:
The assay used a 10-points Iso-Sensitest broth medium to measure quantitatively the in vitro activity of the compounds against Acinetobacter baumannii ATCC17961 or ATCC17978.
Stock compounds in DMSO were serially twofold diluted (e.g. range from 50 to 0.097 μM final concentration) in 384 wells microtiter plates and inoculated with 49 μl the bacterial suspension in Iso-Sensitest medium to have a final cell concentration of ˜5×10^(5) CFU/ml in a final volume/well of 50 ul/well. Microtiter plates were incubated at 35±2° C.
Bacterial cell growth was determined with the measurement of optical density at λ=600 nm each 20 minutes over a time course of 16h. Growth inhibition was calculated during the logarithmic growth of the bacterial cells with determination of the concentration inhibiting 50% (IC50) and 90% (IC90) of the growth.
Table 1 provides the 90% growth inhibitory concentrations (IC90) in micromoles per liter of the compounds of present invention obtained against the strain Acinetobacter baumannii ATCC17978.

The mark [1] stands for this setting: ATCC17978, 90% growth inhibitory concentration, Iso-Sensitest broth, optical density at 600 nm over 16h, 35±2° C., read-out: AB ATCC 17978 IC90.
Setting [2] is: ATCC17978, 16 h, read-out: AB ATCC 17978 IC90 (uM).

IC90 data for 34 compounds are collected here from patent publication US20230141403A1 (Hoffmann-La Roche Inc., priority 2020, published 2023).

The structures appear in SMILES notation. Where a name gives a salt, the structure may show the parent alone. Read-outs that look alike come from different tables or passages of the source.

A word on the IC90: it is the concentration at which the effect reaches the 90% level. In the case of `O=S1(=O)CCCN1c1ccc(Nc2nccn3c(-c4ccc(OC(F)F)cc4)cnc23)cc1` [Example 1, 3-[4-(difluoromethoxy)phenyl]-N-[4-(1,1-dioxo-1,2-thiazolidin-2-yl)phenyl]imidazo[1,2-a]pyrazin-8-amine], the IC90 under setting [1] worked out at 0.33 µM.
Consider `O=C1OCCN1c1ccc(Nc2nccn3c(-c4ccc(OC(F)F)cc4)cnc23)cc1` [Example 2, 3-[4-[[3-[4-(difluoromethoxy)phenyl]imidazo[1,2-a]pyrazin-8-yl]amino]phenyl]oxazolidin-2-one], for which, under setting [1], the IC90 came out at 0.25 µM.
Still for that read-out and setting: the result for `O=C1COCCN1c1ccc(Nc2nccn3c(-c4ccc(OC(F)F)cc4)cnc23)cc1` [Example 4, 4-[4-[[3-[4-(difluoromethoxy)phenyl]imidazo[1,2-a]pyrazin-8-yl]amino]phenyl]morpholin-3-one] reads 0.33 µM.
As for `COc1ccc(-c2cnc3c(Nc4ccc5c(c4)CCCC(=O)N5)nccn23)cc1F` [Example 5, 7-[[3-(3-fluoro-4-methoxy-phenyl)imidazo[1,2-a]pyrazin-8-yl]amino]-1,3,4,5-tetrahydro-1-benzazepin-2-one hydrochloride], the concentration for an effect of 90% (IC90) under setting [2] is 0.88 µM.
`COc1ccc(-c2cnc3c(Nc4ccc(N(C)C(C)=O)cc4)nccn23)cc1Cl` [Example 7]: the IC90 under setting [2] was determined as 0.86 µM.
`CC(=O)Nc1ccc(Nc2nccn3c(-c4ccc(OC(F)F)cc4)cnc23)cc1` [Example 8, N-[4-[[3-[4-(difluoromethoxy)phenyl]imidazo [1,2-a]pyrazin-8-yl]amino]phenyl] acetamide]: the IC90 under setting [1] amounted to 0.82 µM.
For the compound `COc1ccc(-c2cnc3c(Nc4ccc(N5CCCC5=O)cc4)nccn23)cc1Cl` [Example 9, 1-[4-[[3-(3-chloro-4-methoxy-phenyl)imidazo [1,2-a]pyrazin-8-yl]amino]phenyl] pyrrolidin-2-one; 2,2,2-trifluoroacetic acid], the IC90 under setting [1] was determined as 0.34 µM.
Take `COc1ccc(-c2cnc3c(Nc4ccc(NC(=O)CO)cc4)nccn23)cc1Cl` [Example 10, N-[4-[[3-(3-chloro-4-methoxy-phenyl)imidazo [1,2-a]pyrazin-8-yl]amino]phenyl]-2-hydroxy-acetamide; 2,2,2-trifluoroacetic acid]: under setting [1], the 90% effect concentration (IC90) worked out at 0.82 µM.
The same measure, in the same setting: the result for `COc1ccc(-c2cnc3c(Nc4ccc(NC(C)=O)c(C)c4)nccn23)cc1Cl` [Example 11, N-[4-[[3-(3-chloro-4-methoxy-phenyl)imidazo [1,2-a]pyrazin-8-yl]amino]-2-methyl-phenyl]acetamide; 2,2,2-trifluoroacetic acid] reads 0.087 µM.
As for `COc1ccc(-c2cnc3c(Nc4ccc(NC(=O)CO)cc4)nccn23)cc1F` [Example 12, N-[4-[[3-(3-fluoro-4-methoxy-phenyl)imidazo [1,2-a]pyrazin-8-yl]amino]phenyl]-2-hydroxy-acetamide; 2,2,2-trifluoroacetic acid], the IC90 under setting [1] is 0.89 µM.
In the case of `COc1ccc(-c2cnc3c(Nc4ccc(NC(=O)COCCOCCN)cc4)nccn23)cc1Cl` [Example 13, 2-[2-(2-aminoethoxy)ethoxy]-N-[4-[[3-(3-chloro-4-methoxy-phenyl)imidazo[1,2-a]pyrazin-8-yl]amino]phenyl]acetamide; 2,2,2-trifluoroacetic acid], under setting [2], the concentration for an effect of 90% (IC90) was 0.81 µM.
`COc1ccc(-c2cnc3c(Nc4ccc(NC(=O)COCCN)cc4)nccn23)cc1Cl` [Example 14, 2-(2-aminoethoxy)-N-[4-[[3-(3-chloro-4-methoxy-phenyl)imidazo [1,2-a]pyrazin-8-yl]amino]phenyl] acetamide; 2,2,2-trifluoroacetic acid]: under setting [1], the IC90 was determined as 0.64 µM.
In the case of `COc1ccc(-c2cnc3c(Nc4ccc(NC(C)=O)cc4)nccn23)cc1F` [Example 16, N-(4-((3-(3-fluoro-4-methoxyphenyl)imidazo[1,2-a]pyrazin-8-yl)amino)phenyl)acetamide], under setting [1], the IC90 came out at 0.4 µM.
On to `COc1ccc(-c2cnc3c(Nc4ccc(NC(C)=O)cc4)nccn23)cc1Cl` [Example 17, N-(4-((3-(3-chloro-4-methoxyphenyl)imidazo[1,2-a]pyrazin-8-yl)amino)phenyl)acetamide], for which the 90% effect concentration (IC90) under setting [1] is 0.43 µM.
Turning to `COc1ccc(-c2cnc3c(Nc4ccc(N5CCCC5=O)cc4)nccn23)cc1` [Example 18, 1-[4-[[3-(4-methoxyphenyl)imidazo[1,2-a]pyrazin-8-yl]amino]phenyl]pyrrolidin-2-one], the 90% effect concentration (IC90) under setting [1] amounted to 0.33 µM.
For the compound `COCC(=O)Nc1ccc(Nc2nccn3c(-c4ccc(OC)cc4)cnc23)cc1` [Example 19, 2-Methoxy-N-{4-[3-(4-methoxy-phenyl)-imidazo[1,2-a]pyrazin-8-ylamino]-phenyl}-acetamide], the 90% effect concentration (IC90) under setting [1] was 0.77 µM.
The same measure, in the same setting: the result for `COc1ccc(-c2cnc3c(Nc4ccc(NC(C)=O)c(C)c4)nccn23)cc1` [Example 20, N-{4-[3-(4-Methoxy-phenyl)-imidazo[1,2-a]pyrazin-8-ylamino]-2-methyl-phenyl}-acetamide] reads 0.11 µM.
In the case of `COc1ccc(-c2cnc3c(Nc4ccc(NC(C)=O)cc4)nccn23)c(F)c1` [Example 34, N-(4-((3-(2-fluoro-4-methoxyphenyl)imidazo[1,2-a]pyrazin-8-yl)amino)phenyl)acetamide], the IC90 under setting [1] was determined as 0.55 µM.
As to `O=C1CCCN1c1ccc(Nc2nccn3c(-c4ccc(OC(F)F)cc4)cnc23)cc1` [Example 35], under setting [1], the IC90 came to 0.15 µM.
The same measure, in the same setting: the result for `COc1ccc(-c2cnc3c(Nc4ccc(NC(=O)CN5CCOCC5)cc4)nccn23)cc1Cl` [Example 36, N-(4-((3-(3-chloro-4-methoxyphenyl)imidazo[1,2-a]pyrazin-8-yl)amino)phenyl)-2-morpholinoacetamide] reads 0.84 µM; that for `CCc1cc(Nc2nccn3c(-c4ccc(OC)cc4)cnc23)ccc1NC(C)=O` [Example 38, N-(2-ethyl-4-((3-(4-methoxyphenyl)imidazo[1,2-a]pyrazin-8-yl)amino)phenyl)acetamide], 0.2 µM; that for `CC(=O)Nc1ccc(Nc2nccn3c(-c4ccc(OC(F)F)cc4)cnc23)cc1C` [Example 40], 0.13 µM.
Turning to `CC(=O)Nc1ccc(Nc2nccn3c(-c4ccc(OC(F)F)c(Cl)c4)cnc23)cc1` [Example 41, N-(4-((3-(3-chloro-4-(difluoromethoxy)phenyl)imidazo[1,2-a]pyrazin-8-yl)amino)phenyl)acetamide], the IC90 under setting [1] turned out to be 0.52 µM.
In the case of `CC(=O)Nc1ccc(Nc2nccn3c(-c4ccc(Cl)cc4)cnc23)cc1` [Example 42, N-(4-((3-(4-chlorophenyl)imidazo[1,2-a]pyrazin-8-yl)amino)phenyl)acetamide], the concentration for an effect of 90% (IC90) under setting [1] was found to be 0.83 µM.
On to `CC(=O)Nc1ccc(Nc2nccn3c(-c4ccc(Cl)cc4)cnc23)cc1C` [Example 43, N-(4-((3-(4-chlorophenyl)imidazo[1,2-a]pyrazin-8-yl)amino)-2-methylphenyl)acetamide], for which, under setting [1], the concentration for an effect of 90% (IC90) is 0.12 µM.
On the same count and under the same terms, the result for `COc1ccc(-c2cnc3c(Nc4ccc(N5CCCCC5=O)cc4)nccn23)cc1Cl` [Example 44, 1-(4-((3-(3-Chloro-4-methoxyphenyl)imidazo[1,2-a]pyrazin-8-yl)amino)phenyl)piperidin-2-one] reads 0.26 µM.
In the case of `CCc1cc(Nc2nccn3c(-c4ccc(OC)c(Cl)c4)cnc23)ccc1NC(C)=O` [Example 45, N-(4-((3-(3-chloro-4-methoxyphenyl)imidazo[1,2-a]pyrazin-8-yl)amino)-2-ethylphenyl)acetamide], the IC90 under setting [1] came to 0.16 µM.
On to `COc1ccc(-c2cnc3c(Nc4ccc(NC(C)=O)c(Cl)c4)nccn23)cc1Cl` [Example 46, N-(2-chloro-4-((3-(3-chloro-4-methoxyphenyl)imidazo[1,2-a]pyrazin-8-yl)amino)phenyl)acetamide], for which the concentration for an effect of 90% (IC90) under setting [1] worked out at 0.89 µM.
On the same count and under the same terms, the result for `COc1ccc(-c2cnc3c(Nc4ccc(NC(C)=O)c(C)c4)nccn23)cc1F` [Example 47, N-(4-((3-(3-fluoro-4-methoxyphenyl)imidazo[1,2-a]pyrazin-8-yl)amino)-2-methylphenyl)acetamide] reads 0.13 µM; that for `COc1ccc(-c2cnc3c(Nc4ccc(NC(=O)CN5CCNCC5)c(C)c4)nccn23)cc1Cl` [Example 49, N-(4-((3-(3-chloro-4-methoxyphenyl)imidazo[1,2-a]pyrazin-8-yl)amino)-2-methylphenyl)-2-(piperazin-1-yl)acetamide], 0.3 µM.
For the compound `COc1ccc(-c2cnc3c(Nc4ccc(NC(C)=O)c(CO)c4)nccn23)cc1` [Example 50, N-(2-(hydroxymethyl)-4-((3-(4-methoxyphenyl)imidazo[1,2-a]pyrazin-8-yl)amino)phenyl)acetamide], the IC90 under setting [1] is 0.63 µM.
For `COc1ccc(-c2cnc3c(Nc4ccc(NC(=O)CCl)cc4)nccn23)cc1` [Example 51, 2-chloro-N-(4-((3-(4-methoxyphenyl)imidazo[1,2-a]pyrazin-8-yl)amino)phenyl)acetamide], under setting [1], the concentration for an effect of 90% (IC90) stood at 0.75 µM.
Same read-out and setting: the result for `COc1ccc(-c2cnc3c(Nc4ccc(S(C)(=O)=O)cc4)nccn23)cc1` [Example 52, 3-(4-Methoxyphenyl)-N-(4-(methylsulfonyl)phenyl)imidazo[1,2-a]pyrazin-8-amine] reads 0.98 µM.
Still for that read-out and setting: the result for `CC(=O)Nc1ccc(Nc2nccn3c(-c4ccc(F)cc4)cnc23)cc1C` [Example 53, N-(4-((3-(4-fluorophenyl)imidazo[1,2-a]pyrazin-8-yl)amino)-2-methylphenyl)acetamide] reads 0.36 µM.
